Data from ChEMBL document CHEMBL1201862, “PubChem BioAssay data set” (2004).
Activity calls are given as the source filed them.

Tests used:
[1] = biological target: T1, Streptokinase A (Streptococcus pyogenes serotype M1, UniProt P10520); assay: viability-normalized secreted streptokinase activity reduction – plasminogen activation absorbance, OD405, dose response (AID 1914); format: functional, Streptococcus pyogenes M1 GAS;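 also: secreted streptokinase activity via plasminogen activation per viability signal from cell pellet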
T1 sequence (P10520 whole entry): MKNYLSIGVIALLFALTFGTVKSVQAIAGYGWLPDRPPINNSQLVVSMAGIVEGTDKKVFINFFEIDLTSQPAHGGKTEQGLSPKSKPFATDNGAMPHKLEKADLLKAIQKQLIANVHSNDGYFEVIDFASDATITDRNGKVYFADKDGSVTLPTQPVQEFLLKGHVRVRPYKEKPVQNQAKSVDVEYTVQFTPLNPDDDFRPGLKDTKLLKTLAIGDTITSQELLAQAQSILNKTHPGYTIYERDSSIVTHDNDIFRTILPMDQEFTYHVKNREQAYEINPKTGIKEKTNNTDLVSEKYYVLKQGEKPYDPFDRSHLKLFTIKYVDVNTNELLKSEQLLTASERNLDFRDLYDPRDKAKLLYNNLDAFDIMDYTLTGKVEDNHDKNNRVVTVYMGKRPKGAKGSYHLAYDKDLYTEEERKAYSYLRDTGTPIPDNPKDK

[2] = tested on: Streptococcus; assay: GAS UMAA2166 growth inhibition – luminescence, BacTiterGlo, counter-screen for streptokinase expression inhibitor project, dose response (AID 1915); format: functional, organism-based;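 also: potency for reduction of bacterial viability or growth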
[3] = biological target: Cytochrome P450 3A4 (Homo sapiens, UniProt P08684);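 also: CYP3A4 tested as one member of a cytochrome P450 panel screen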
Chain of Cytochrome P450 3A4 (P08684 whole entry): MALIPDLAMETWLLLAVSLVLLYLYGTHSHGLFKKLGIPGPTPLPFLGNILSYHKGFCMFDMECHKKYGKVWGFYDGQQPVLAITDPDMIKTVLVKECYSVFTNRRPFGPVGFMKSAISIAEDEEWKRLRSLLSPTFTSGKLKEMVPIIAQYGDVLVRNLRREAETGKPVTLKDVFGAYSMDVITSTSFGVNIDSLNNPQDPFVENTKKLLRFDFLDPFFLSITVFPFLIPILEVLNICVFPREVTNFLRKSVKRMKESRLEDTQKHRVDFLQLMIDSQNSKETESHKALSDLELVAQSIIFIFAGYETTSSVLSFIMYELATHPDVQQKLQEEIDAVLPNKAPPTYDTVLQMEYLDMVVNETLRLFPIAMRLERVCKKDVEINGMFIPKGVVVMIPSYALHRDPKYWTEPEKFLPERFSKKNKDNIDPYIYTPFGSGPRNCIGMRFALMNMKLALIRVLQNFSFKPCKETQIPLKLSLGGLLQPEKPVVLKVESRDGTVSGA

[4] = tested on: Streptococcus sp. 'group A'; assay: Streptococcus pyogenes SK(-)GAS viability under kanamycin – luminescence, BacTiterGlo, confirmation, counter-screen for streptokinase expression inhibitor project, dose response (AID 1900); format: functional, organism-based
[5] = Luminescence Cell-Based Dose Retest to Confirm Inhibitors of Cancer Stem Cells. [Related pubchem assays (depositor defined):AID2717, AID2721]; format: functional; settings: Homo sapiens
[6] = biological target: Luciferin 4-monooxygenase (Photinus pyralis, UniProt P08659); assay: inhibition of purified Photinus pyralis luciferase – biochemical, luminescence, dose response (AID 1891)
Chain of Luciferin 4-monooxygenase (P08659 whole entry): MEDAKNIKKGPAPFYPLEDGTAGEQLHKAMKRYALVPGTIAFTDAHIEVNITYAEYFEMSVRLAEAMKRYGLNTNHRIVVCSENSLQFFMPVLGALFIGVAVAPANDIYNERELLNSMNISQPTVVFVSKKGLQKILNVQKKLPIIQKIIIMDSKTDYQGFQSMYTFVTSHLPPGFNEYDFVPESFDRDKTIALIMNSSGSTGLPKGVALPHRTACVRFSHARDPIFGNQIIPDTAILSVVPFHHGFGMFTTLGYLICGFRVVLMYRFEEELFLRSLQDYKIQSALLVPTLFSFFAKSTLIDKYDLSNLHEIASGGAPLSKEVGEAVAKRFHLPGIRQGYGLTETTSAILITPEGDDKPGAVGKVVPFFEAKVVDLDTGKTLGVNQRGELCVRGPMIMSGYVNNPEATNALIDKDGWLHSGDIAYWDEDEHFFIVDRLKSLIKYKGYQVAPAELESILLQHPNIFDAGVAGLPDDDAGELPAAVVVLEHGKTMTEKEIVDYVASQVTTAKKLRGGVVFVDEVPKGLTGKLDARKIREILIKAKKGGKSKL

[7] = Luminescence Cell-Based Dose Confirmation HTS to Identify Inhibitors of Platelet Dense Granule Release. [Related pubchem assays: 1663 (Primary HTS), 1678 (Summary of Project)]; format: functional
[8] = cells; format: functional
[9] = biological target: Large T antigen (Simian virus 40, UniProt P03070); format: functional, Betapolyomavirus macacae;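 also: Confirmatory-stage PubChem screen for compounds that inhibit SV40 T antigen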
Chain of Large T antigen (P03070 whole entry): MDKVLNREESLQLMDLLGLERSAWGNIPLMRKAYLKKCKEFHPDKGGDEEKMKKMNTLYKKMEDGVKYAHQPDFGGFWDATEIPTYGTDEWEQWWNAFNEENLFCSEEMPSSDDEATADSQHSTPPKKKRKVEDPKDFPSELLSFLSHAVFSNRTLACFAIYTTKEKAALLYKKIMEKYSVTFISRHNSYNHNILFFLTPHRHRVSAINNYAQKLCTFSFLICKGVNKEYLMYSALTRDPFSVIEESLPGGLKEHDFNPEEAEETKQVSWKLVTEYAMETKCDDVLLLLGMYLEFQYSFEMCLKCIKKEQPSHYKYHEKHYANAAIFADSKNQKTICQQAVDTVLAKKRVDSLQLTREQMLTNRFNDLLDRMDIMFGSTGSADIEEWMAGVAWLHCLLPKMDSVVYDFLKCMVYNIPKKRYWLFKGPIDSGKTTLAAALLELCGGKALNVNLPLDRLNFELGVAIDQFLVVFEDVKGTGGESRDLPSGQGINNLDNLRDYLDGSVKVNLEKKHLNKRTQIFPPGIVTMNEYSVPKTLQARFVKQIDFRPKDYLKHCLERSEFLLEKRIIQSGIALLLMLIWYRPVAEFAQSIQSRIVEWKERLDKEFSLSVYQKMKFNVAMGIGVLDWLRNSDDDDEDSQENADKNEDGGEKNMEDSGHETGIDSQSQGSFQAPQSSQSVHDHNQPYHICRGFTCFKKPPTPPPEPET

[10] = viability of PTEN-deleted HCT116 cells – cell-based, HCT116 PTEN knockout, dose response (AID 1047); format: functional;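 also: HCT116 colon tumor cells with PTEN knocked out; cells exposed to compound for 60 hours before readout; potency for loss of cell viability measured by luminescence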
[11] = viability of HCT116 lacking mutant beta-catenin – cell-based, human colon tumor, dose response (AID 1045); format: functional;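 also: HCT116 colon tumor cells with beta catenin knocked out; cells exposed to compound for 60 hours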
[12] = biological target: T2, Polyadenylate-binding protein 1 (Homo sapiens, UniProt P11940); assay: MLLE domain peptide-binding blockers, IC50 – biochemical, fluorescence polarization, FITC-PAM2 peptide, dose response (AID 602259); format: functional; settings: read-out: IC50_Mean
T2 sequence (P11940 whole entry, the tested form may be a part): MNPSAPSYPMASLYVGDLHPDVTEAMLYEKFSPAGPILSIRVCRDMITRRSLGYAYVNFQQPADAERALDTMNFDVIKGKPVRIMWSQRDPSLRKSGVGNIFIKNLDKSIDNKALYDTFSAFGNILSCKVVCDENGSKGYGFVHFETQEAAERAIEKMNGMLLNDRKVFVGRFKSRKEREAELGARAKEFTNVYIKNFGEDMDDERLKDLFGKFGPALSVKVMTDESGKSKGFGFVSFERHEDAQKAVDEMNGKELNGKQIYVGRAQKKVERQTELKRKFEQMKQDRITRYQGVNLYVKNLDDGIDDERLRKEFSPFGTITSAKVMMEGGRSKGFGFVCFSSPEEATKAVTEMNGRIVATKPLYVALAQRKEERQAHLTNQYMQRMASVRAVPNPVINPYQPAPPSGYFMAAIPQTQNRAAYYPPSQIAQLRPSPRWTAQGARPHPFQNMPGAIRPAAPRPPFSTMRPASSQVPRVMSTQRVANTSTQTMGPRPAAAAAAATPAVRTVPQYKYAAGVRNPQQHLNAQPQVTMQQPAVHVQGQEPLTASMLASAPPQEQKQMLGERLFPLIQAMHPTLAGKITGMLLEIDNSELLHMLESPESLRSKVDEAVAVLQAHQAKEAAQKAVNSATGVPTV

[13] = biological target: T3, Cytochrome P450 1A2 (Homo sapiens, UniProt P05177);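 also: PubChem cytochrome P450 panel assay, CYP1A2 panel member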
T3 sequence (P05177 whole entry): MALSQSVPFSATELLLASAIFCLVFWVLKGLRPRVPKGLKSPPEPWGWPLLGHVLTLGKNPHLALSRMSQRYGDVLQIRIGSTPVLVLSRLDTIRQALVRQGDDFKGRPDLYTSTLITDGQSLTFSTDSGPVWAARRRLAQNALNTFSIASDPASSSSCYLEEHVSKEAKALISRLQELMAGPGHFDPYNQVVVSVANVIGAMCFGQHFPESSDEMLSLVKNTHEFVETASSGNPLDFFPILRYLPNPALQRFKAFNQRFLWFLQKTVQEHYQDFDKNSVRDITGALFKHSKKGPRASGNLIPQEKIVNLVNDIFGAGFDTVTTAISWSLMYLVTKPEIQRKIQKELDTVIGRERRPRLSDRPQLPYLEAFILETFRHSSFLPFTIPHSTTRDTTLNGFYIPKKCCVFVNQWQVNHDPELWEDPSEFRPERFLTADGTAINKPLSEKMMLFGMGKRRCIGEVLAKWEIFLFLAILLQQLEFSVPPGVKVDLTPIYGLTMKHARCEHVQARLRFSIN

[14] = biological target: Cytochrome P450 2C9 (Homo sapiens, UniProt P11712)
Chain of Cytochrome P450 2C9 (P11712 whole entry): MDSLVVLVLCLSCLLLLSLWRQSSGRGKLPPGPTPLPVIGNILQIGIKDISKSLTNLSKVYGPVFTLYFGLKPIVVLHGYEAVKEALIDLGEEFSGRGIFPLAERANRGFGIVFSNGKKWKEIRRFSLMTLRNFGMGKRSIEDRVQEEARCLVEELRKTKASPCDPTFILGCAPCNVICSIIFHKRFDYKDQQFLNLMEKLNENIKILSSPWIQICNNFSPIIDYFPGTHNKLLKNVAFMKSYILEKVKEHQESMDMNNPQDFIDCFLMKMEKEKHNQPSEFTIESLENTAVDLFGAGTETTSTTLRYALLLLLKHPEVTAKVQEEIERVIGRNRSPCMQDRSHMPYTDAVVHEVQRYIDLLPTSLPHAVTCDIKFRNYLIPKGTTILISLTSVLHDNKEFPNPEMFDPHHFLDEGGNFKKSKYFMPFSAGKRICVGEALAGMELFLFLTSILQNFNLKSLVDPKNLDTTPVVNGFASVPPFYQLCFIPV

[15] = biological target: T2, Polyadenylate-binding protein 1; assay: MLLE binding blockers, Cy5 peptide tracer – biochemical, fluorescence polarization, Cy5-PAM2 peptide, secondary, miRNA deadenylation inhibitor project, dose response (AID 602260); format: functional; settings: read-out: IC50_Mean

O=C1c2ccccc2C2=Nc3ccccc3SC(c3ccccc3F)C12 (centres undefined)
EC50 [1]: 4.91 µM (active)
EC50 [2]: 12.7 µM (active)
AC50 [3]: 0.355 µM (inconclusive)
EC50 [4]: 8.24 µM (active)

O=c1c2ccccc2nc(/C=C/c2ccc(Br)cc2)n1CCO
AC50 [5]: 10.5 µM (active)

O=C(Nc1ccccc1F)c1cnc(O)nc1O
EC50 [6]: > 112 µM (not active)
EC50 [7]: > 112 µM (not active)

Cc1ccc(NC(=O)CO/N=C/c2ccccc2C)c(C)c1
IC50 [8]: 50 µM (active)

N#Cc1nc(-c2ccc(OCc3ccccc3Cl)cc2)oc1NCCCn1ccnc1
EC50 [1]: 16.6 µM (active)
EC50 [2]: > 150 µM (not active)
EC50 [4]: 4.38 µM (active)

C/C(CC(=O)Nc1ccc(N(C)C)cc1)=N\NC(=O)c1ccc(Cl)cc1Cl
IC50 [9]: 9.26 µM (active)

O=C1NC(=S)N=C1c1c(O)[nH]c2ccccc12
EC50 [6]: > 112 µM (not active)
EC50 [7]: > 112 µM (not active)

CCOc1ccc(CN2CCN(CC(O)Cn3c4ccccc4c4ccccc43)CC2)cc1 (centres undefined)
EC50 [10]: 9.94 µM (active)
EC50 [11]: 9.01 µM (active)

CS(=O)(=O)c1ccc([C@@H](O)[C@@H](CO)NC(=O)C(Cl)Cl)cc1 [THIAMPHENICOL]
EC50 [1]: 4.02 µM (active)
EC50 [2]: 4.55 µM (active)
EC50 [4]: 1.89 µM (active)

CCc1cccc(NC(=O)CN(C)S(=O)(=O)c2c[nH]cn2)c1
EC50 [6]: > 112 µM (not active)
EC50 [7]: > 112 µM (not active)

COC(=O)c1cc(-c2ccc(OC)cc2F)nc2nc(SC)nc(O)c12
EC50 [1]: > 150 µM (not active)
EC50 [2]: 23.3 µM (active)
EC50 [4]: 8.08 µM (active)

COc1cc(/C(C)=N/NC(=O)CSc2nc3ccccc3[nH]2)ccc1O
IC50 [9]: 22.9 µM (active)

COc1ccc(S(=O)(=O)NCC2CCCN(Cc3ccc(OC)cc3F)C2)cc1 (centres undefined)
EC50 [1]: > 150 µM (not active)
EC50 [2]: > 150 µM (not active)
EC50 [4]: 114 µM (active)

COc1ccc(CCN2CC(C(=O)NCCc3ccccc3C(F)(F)F)CCC2=O)cc1 (centres undefined)
EC50 [6]: > 112 µM (not active)
EC50 [7]: > 112 µM (not active)

CCN(CC)CCNC(=O)c1ccc2c(=O)n(C3CCCC3)c(=S)[nH]c2c1
EC50 [10]: 17.2 µM (active)
EC50 [11]: 14.1 µM (active)

CCOC(=O)N1CCN(C(=O)CSCc2nc(-c3ccccc3F)oc2C)CC1
IC50 [12]: > 66 µM (inactive)
AC50 [13]: 12.6 µM (inconclusive)
AC50 [3]: 25.1 µM (inconclusive)
AC50 [14]: 14.1 µM (inconclusive)
IC50 [15]: > 66 µM (inactive)

COc1ccc(C(C)=O)cc1COc1cc(C)c(Cl)c(C)c1
EC50 [1]: > 150 µM (not active)
EC50 [2]: > 150 µM (not active)
EC50 [4]: > 150 µM (not active)

COc1ccc(Cn2c(-c3ccco3)nc3oc4ccccc4c(=O)c3c2=O)cc1
EC50 [1]: > 150 µM (not active)
EC50 [2]: 86.5 µM (active)
EC50 [4]: 12.1 µM (active)

CN1C2CCC1CC(NC(=O)CSc1ccc(Cl)cc1)C2 (centres undefined)
EC50 [6]: > 112 µM (not active)
EC50 [7]: > 112 µM (not active)

Cc1cc(C)c2c(c1)cc(C)c1nnc(SCC(=O)Nc3ccccc3N3CCOCC3)n12
EC50 [6]: > 112 µM (not active)
EC50 [7]: > 112 µM (not active)

COc1cccc(OCC(=O)NNC(=O)C(=O)Nc2cccc(C)c2)c1
IC50 [8]: 20.4 µM (active)

COc1ccc2c(c1OC)C(=O)N1C2SC[C@H]1C(=O)NC1CCCC1 (some centres undefined)
IC50 [12]: > 66 µM (inactive)
IC50 [15]: > 66 µM (inactive)

Cn1cc([N+](=O)[O-])c(C(=O)Nc2ccc(Br)cn2)n1
EC50 [10]: 5.55 µM (active)
EC50 [11]: 4.91 µM (active)

Cc1cc(OCC(=O)Nc2ccncc2)ccc1Br
IC50 [8]: > 50 µM (active)

CCCn1c(NC(=O)c2cccc(C)c2C)nc2ccccc21
EC50 [1]: > 150 µM (not active)
EC50 [2]: > 150 µM (not active)
EC50 [4]: 7.43 µM (active)

COc1ccc(CNC(=O)c2ccccc2NC(=O)C2=CSCCO2)c(OC)c1
EC50 [6]: > 112 µM (not active)
EC50 [7]: 15.7 µM (active)

COc1ccc(NC(=O)c2ccc(-c3ccc([N+](=O)[O-])cc3)o2)cc1OC
IC50 [8]: > 50 µM (active)

Cc1cccc(-c2oc3ccccc3c2-c2ccc3c(c2)OCO3)c1
EC50 [1]: 5.16 µM (active)
EC50 [2]: > 150 µM (not active)
EC50 [4]: 2.25 µM (active)

Nc1ccc(Nc2nc3ccccc3[nH]2)cc1
IC50 [9]: 7.8 µM (active)

CCC(C)SCc1nc2ccccc2[nH]1 (centres undefined)
EC50 [6]: > 112 µM (not active)
EC50 [7]: > 112 µM (not active)

CCCNC(=O)NC(=O)COc1ccc(-c2ccc(C#N)cc2)cc1
IC50 [8]: 1.12 µM (active)

COc1c(Cl)cnn(-c2ccc(C)cc2)c1=O
EC50 [10]: 15.5 µM (active)
EC50 [11]: 11.5 µM (active)

CC(=O)Nc1ccc(-c2csc(NC(=O)Cc3cccc(F)c3)n2)cc1
AC50 [5]: 1.29 µM (active)

Cc1ccc(S(=O)(=O)CNC(=S)c2ccc3ccccc3c2)cc1
EC50 [1]: > 150 µM (not active)

Cc1ccc(OCCCCc2c(C)n[nH]c2C)cc1
EC50 [1]: > 150 µM (not active)
EC50 [2]: > 150 µM (not active)
IC50 [8]: 25.6 µM (active)
EC50 [4]: 16.3 µM (active)

CC1=NC2=C(C(=O)CCC2)C(c2cc3c(cc2Br)OCO3)/C1=C(\O)OCCOC(C)C (centres undefined)
IC50 [12]: > 66 µM (inactive)
IC50 [15]: > 66 µM (inactive)

CCc1noc(C)c1C(=O)OCC(=O)NC(=O)c1ccccc1
EC50 [1]: > 150 µM (not active)
EC50 [2]: > 150 µM (not active)
EC50 [4]: > 150 µM (not active)

COc1ccc(C2=NOC(CNC(N)=S)C2)cc1 (centres undefined)
EC50 [1]: > 150 µM (not active)

CCCC(=O)NC(Nc1cc(C(F)(F)F)ccc1Cl)C(Cl)(Cl)Cl (centres undefined)
EC50 [10]: 25.5 µM (active)
EC50 [11]: 33.6 µM (active)

CN(C)c1ccc(N2CC(C)(C)C2=O)cc1
IC50 [9]: 4.39 µM (active)

Cc1cccc2nc(CSCc3ccco3)cn12
IC50 [12]: > 66 µM (inactive)
IC50 [15]: > 66 µM (inactive)

Cc1ccc2c(c1)c1ncn(CCC3=CCCCC3)c(=O)c1n2C
AC50 [5]: 1 µM (active)

O=C(c1ccco1)N1CCN(C(=S)Nc2ccc(F)c(Cl)c2)CC1
IC50 [9]: > 100 µM (active)

O=C(NCCc1c[nH]c2ccccc12)C(=O)c1c[nH]c2ccccc12
AC50 [5]: 1.48 µM (active)

O=C(NC(=S)Nc1cccnc1)c1cccc(Cl)c1
IC50 [12]: > 66 µM (inactive)
IC50 [15]: > 66 µM (inactive)

COc1ccc(N/C=C/C(=O)c2ccccc2)cc1
EC50 [6]: 0.863 µM (active)
EC50 [7]: < 0.701 µM (active)

COc1c(F)c(F)c(-c2csc(N)n2)c(F)c1F
IC50 [12]: > 66 µM (inactive)
IC50 [15]: > 66 µM (inactive)

O=C(CCn1c(=O)oc2cc(Cl)ccc21)Nc1ccc(O)cc1
IC50 [9]: 25.2 µM (active)

O=C(c1ccc(S(=O)(=O)N2CCOCC2)cc1)N1CCN(c2ccc(F)cc2)CC1
EC50 [6]: > 112 µM (not active)
EC50 [7]: 93.8 µM (active)

COC(=O)c1ccc(/C=C/c2c(-c3ccc(OC)cc3)sc3ccccc23)cc1
AC50 [5]: 3.79 µM (active)

O=C(Cc1ccccc1)Nc1cccc(NC(=O)c2ccccc2)c1
AC50 [5]: 7.49 µM (active)
